Test results taken from article PMC7002704, “Inhibitory effect of Citrus flavonoids on the in vitro transport activity of human urate transporter 1 (URAT1/SLC22A12), a renal re-absorber of urate” (NPJ Science of Food, 2020).
Read-outs that look alike come from different tables or passages of the source.

Key:
[1] = molecular target: T1, urate transporter 1 (URAT1/SLC22A12) (Homo sapiens, UniProt Q96S37)
T1 sequence (Q96S37 1-553): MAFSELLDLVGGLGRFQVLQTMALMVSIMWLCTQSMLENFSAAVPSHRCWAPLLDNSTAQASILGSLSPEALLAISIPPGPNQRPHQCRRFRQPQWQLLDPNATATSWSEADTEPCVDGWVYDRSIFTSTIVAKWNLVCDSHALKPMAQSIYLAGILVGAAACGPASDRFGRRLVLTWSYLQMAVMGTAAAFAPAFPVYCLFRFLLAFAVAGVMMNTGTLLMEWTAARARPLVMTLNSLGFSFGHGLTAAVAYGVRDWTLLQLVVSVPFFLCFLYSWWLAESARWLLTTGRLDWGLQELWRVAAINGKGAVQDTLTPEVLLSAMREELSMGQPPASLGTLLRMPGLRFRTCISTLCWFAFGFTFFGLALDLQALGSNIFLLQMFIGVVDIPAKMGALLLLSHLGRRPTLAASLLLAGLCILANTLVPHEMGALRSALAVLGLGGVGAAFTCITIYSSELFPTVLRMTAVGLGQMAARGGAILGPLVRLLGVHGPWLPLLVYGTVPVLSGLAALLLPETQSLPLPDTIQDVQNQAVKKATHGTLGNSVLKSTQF

[2] = molecular target: T1, urate transporter 1 (URAT1/SLC22A12); assay: [[…]-14C]-urate uptake inhibition in URAT1-expressing […] cells; assay type: cell-based; parameters: EGFP-tagged URAT1 wild type (pEGFP-C1)

Row | SMILES | IC50 [2] [µM] | also measured
1 | CCc1oc2ccccc2c1C(=O)c1cc(Br)c(O)c(Br)c1 [benzbromarone] | – | % inhibition at 10 μM [1]: 96
2 | COc1ccc([C@@H]2CC(=O)c3c(O)cc(O)cc3O2)cc1O [hesperetin] | 25.7 | –
3 | O=C1C[C@@H](c2ccc(O)cc2)Oc2cc(O)cc(O)c21 [naringenin] | 16.1 | –
4 | COc1ccc(-c2cc(=O)c3c(OC)c(OC)c(OC)c(OC)c3o2)cc1OC [nobiletin] | – | IC50 ([2]; read-out: IC50): 17.6 µM
